We go through 31 molecules from patent US20230322785A1, “ADENOSINE A2A AND A2B RECEPTOR DUAL ANTAGONISTS FOR IMMUNO-ONCOLOGY” (Merck Sharp & Dohme LLC, priority 2020, published 2023).

The target of the assay is T1, human A2A adenosine receptor (Homo sapiens, UniProt P29274).
T1 construct: expressed in transfected cells; host or cells: HEK293 or CHO cells
T1 sequence (P29274 whole entry): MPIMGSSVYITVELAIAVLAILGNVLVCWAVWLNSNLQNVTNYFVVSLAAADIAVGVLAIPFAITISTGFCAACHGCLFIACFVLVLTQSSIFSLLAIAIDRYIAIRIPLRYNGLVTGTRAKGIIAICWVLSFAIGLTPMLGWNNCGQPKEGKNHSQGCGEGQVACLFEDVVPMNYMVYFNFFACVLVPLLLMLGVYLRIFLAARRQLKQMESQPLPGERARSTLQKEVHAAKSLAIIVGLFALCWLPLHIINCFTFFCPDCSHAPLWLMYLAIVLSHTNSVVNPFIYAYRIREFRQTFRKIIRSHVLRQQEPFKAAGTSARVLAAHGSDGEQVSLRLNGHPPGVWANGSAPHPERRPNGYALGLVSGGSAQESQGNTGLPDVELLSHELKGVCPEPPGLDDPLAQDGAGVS
Nature of the assay: A2A binding affinity, Method (B): scintillation proximity assay (SPA) with [3H]SCH58261. The note with it: membranes of HEK293 or CHO cells expressing the human receptor. The text has this:
Method (A) describes the procedure used to measure A2A binding affinity using radioligand binding. Method (B) describes the procedure used to measure A2A binding affinity using SPA technology. The method used to measure A2B binding affinity is also described below. The method used to determine the A2A IC50 value reported for each compound in the table is indicated next to the reported value. The A2B IC50 value measured using the A2B binding affinity assay is shown in the table next to the compound under the corresponding A2A value.
The A2A receptor affinity binding assay measured the amount of binding of a tritiated ligand with high affinity for the A2A adenosine receptor to membranes made from HEK293 or CHO cells recombinantly expressing the human A2A adenosine receptor, in the presence of varying concentrations of a compound of the invention. The data were generated using either filtration binding or a homogenous scintillation proximity assay (SPA).
Method (B): Measurement of A2A Binding Affinity Using SPA
Binding affinity using SPA was conducted as follows. Test compounds (50 nL) were dispensed into individual wells of a 384-well OptiPlate™ well (Perkin Elmer) by Echo® acoustic liquid transfer (Labcyte). 20 µL of 1.25 nM [^3H] SCH58261 ((7-(2-phenylethyl)-5-amino-2-(2-furyl)-pyrazolo-[4,3-e]-1,2,4-triazolo[1,5-c]pyrimidine)) in DPBS assay buffer (Dulbecco’s phosphate buffered saline without calcium and magnesium, ThermoFisher Scientific, Cat. No. A1285601) supplemented with 10 mM MgCl2 was added. A2A receptor-expressing membranes were incubated with 20 µg/mL adenosine deaminase (Roche, Cat. No. 10 102 105 001) for 15 min at room temperature. The receptor-expressing membranes were then combined with wheat germ agglutinin-coated yttrium silicate SPA beads (GE Healthcare, Cat. No. RPNQ0023) in a ratio of […] (w/w) and incubated for 30 min at room temperature. 30 µL of the membrane/bead mixture (0.25 µg and 25 µg per well respectively) were added to the 384-well OptiPlate™ well. To define total and non-specific binding, wells containing 1% DMSO or 1 µM CGS 15943 (Tocris Bioscience, Cat. No. 1699) respectively were also included in the experiment. The plate was incubated for 1 h at room temperature with agitation. The assay plate was then incubated for an h to allow the beads to settle before data were collected using a TopCount® (Perkin Elmer) scintillation counter. After normalization to total and non-specific binding, the percent effect at each compound concentration was calculated. The plot of percent effect versus the log of compound concentration was analyzed electronically using a 4-parameter logistic fit based on the Levenberg-Marquardt algorithm to generate IC50 values.
In turn, `COc1ccc(CCC(=O)NCc2nc3c4cccc(OC)c4nc(N)n3n2)cc1` [Example 2.4] had an IC50 of 7.5 nM.
With `COc1cccc2c1nc(N)n1nc(CNC(=O)OCc3ccccc3)nc21` [Example 6.1, benzyl ((5-amino-7-methoxy-[1,2,4]triazolo[1,5-c]quinazolin-2-yl)methyl)carbamate] the figure was 5.9 nM.
Next, `COc1cccc2c1nc(N)n1nc(CN(CC(C)F)CC(C)F)nc21` (stereo not shown) [Example 13.1, 2-((bis(2-fluoropropyl)amino)methyl)-7-methoxy-[1,2,4]triazolo[1,5-c]quinazolin-5-amine]: 3.3 nM; `COc1cccc2c1nc(N)n1nc(CNCc3ccc(C(C)(C)C)cc3)nc21` [Example 7.6, 2-(((4-(tert-butyl)benzyl)amino)methyl)-7-methoxy-[1,2,4]triazolo[1,5-c]quinazolin-5-amine]: 4.3 nM; `COc1cccc2c1nc(N)n1nc(CN(CC(F)F)CC3CC3)nc21` [Example 17.1, 2-(((cyclopropylmethyl)(2,2-difluoroethyl)amino)methyl)-7-methoxy-[1,2,4]triazolo[1,5-c]quinazolin-5-amine]: 2.5 nM.
Next, `COc1cccc2c1nc(N)n1nc(CN(Cc3ccc(F)c(F)c3F)CC3CC3)nc21` [Example 16.17, 2-(((cyclopropylmethyl)(2,3,4-trifluorobenzyl)amino)methyl)-7-methoxy-[1,2,4]triazolo[1,5-c]quinazolin-5-amine]: 4.8 nM.
On to `C=CCN(Cc1ccc(OC(F)(F)F)cc1)Cc1nc2c3cccc(OC)c3nc(N)n2n1` [Entry 21.2], for which the IC50 is 3.1 nM.
Next, `COc1cccc2c1nc(N)n1nc(CCN[C@H](C)C(F)(F)F)nc21` [Example 23.4, (R)-7-methoxy-2-(2-((1,1,1-trifluoropropan-2-yl)amino)ethyl)-[1,2,4]triazolo[1,5-c]quinazolin-5-amine]: 5.8 nM; `COc1cccc2c1nc(N)n1nc(CN[C@H](C)C(F)(F)F)nc21` [Example 10.8, (R)-7-methoxy-2-(((1,1,1-trifluoropropan-2-yl)amino)methyl)-[1,2,4]triazolo[1,5-c]quinazolin-5-amine]: 3.9 nM; `COc1cccc2c1nc(N)n1nc(CN(C)c3cccc(Br)n3)nc21` [Example 10.11, 2-(((6-bromopyridin-2-yl)(methyl)amino)methyl)-7-methoxy-[1,2,4]triazolo [1,5-c]quinazolin-5-amine]: 2.2 nM.
With `COc1cccc2c1nc(N)n1nc(CC(=O)NCc3cccnc3)nc21` [Example 4.3, 2-(5-amino-7-methoxy-[1,2,4]triazolo[1,5-c]quinazolin-2-yl)-N-(pyridin-3-ylmethyl)acetamide] the figure was 44.3 nM.
Turning to `COc1cccc2c1nc(N)n1nc(CN(Cc3ccc(C(F)(F)F)nc3)CC3CC3)nc21` [Example 16.8, 2-(((cyclopropylmethyl)((6-(trifluoromethyl)pyridin-3-yl)methyl)amino)methyl)-7-methoxy-[1,2,4]triazolo[1,5-c]quinazolin-5-amine], the concentration for half-maximal inhibition (IC50) came to 24.1 nM.
Next, `COc1cccc2c1nc(N)n1nc(CNC(C)(C)c3ccccn3)nc21` [Example 7.3, 7-methoxy-2-(((2-(pyridin-2-yl)propan-2-yl)amino)methyl)-[1,2,4]triazolo[1,5-c]quinazolin-5-amine]: 18.5 nM; `COc1cccc2c1nc(N)n1nc(CN(CCC(C)C)Cc3ccc(C(F)(F)F)cc3)nc21` [Example 15.5, 2-((isopentyl(4-(trifluoromethyl)benzyl)amino)methyl)-7-methoxy-[1,2,4]triazolo[1,5-c]quinazolin-5-amine]: 101 nM.
For `CCN(Cc1nc2c3cccc(OC)c3nc(N)n2n1)CC1CCN(c2ncc(F)cn2)CC1` [Example 15.16, 2-((ethyl((1-(5-fluoropyrimidin-2-yl)piperidin-4-yl)methyl)amino)methyl)-7-methoxy-[1,2,4]triazolo[1,5-c]quinazolin-5-amine], the half-inhibitory concentration (IC50) was 31 nM.
On to `COc1cccc2c1nc(N)n1nc(CNC(C)c3ncc(-c4ccc(F)cc4)o3)nc21` (single isomer, unassigned) [Example 10.15, (S or R)-2-(((1-(5-(4-fluorophenyl)oxazol-2-yl)ethyl)amino)methyl)-7-methoxy-[1,2,4]triazolo[1,5-c]quinazolin-5-amine], for which the IC50 turned out to be 44.3 nM.
With `COc1cccc2c1nc(N)n1nc(CN(Cc3ccc(-c4ccccn4)cc3)CC3CC3)nc21` [Example 16.13, 2-(((cyclopropylmethyl)(4-(pyridin-2-yl)benzyl)amino)methyl)-7-methoxy-[1,2,4]triazolo[1,5-c]quinazolin-5-amine] the figure was 2.6 nM; with `COc1cccc2c1nc(N)n1nc(CN(C)Cc3ccc(C(F)(F)F)cc3)nc21` [Example 8.3, 7-methoxy-2-((methyl(4-(trifluoromethyl)benzyl)amino)methyl)-[1,2,4]triazolo[1,5-c]quinazolin-5-amine], 6.4 nM; with `COc1cccc2c1nc(N)n1nc(CNC(=O)CCc3ccc(C(F)(F)F)cc3)nc21` [Example 2.3], 4.5 nM.
With `C=CCN(Cc1ccc(C(F)(F)F)cc1)Cc1nc2c3cccc(OC)c3nc(N)n2n1` [Example 21.1, 2-((allyl(4-(trifluoromethyl)benzyl)amino)methyl)-7-methoxy-[1,2,4]triazolo[1,5-c]quinazolin-5-amine] the figure was 11.1 nM; with `COc1ccc(CN(Cc2nc3c4cccc(OC)c4nc(N)n3n2)CC2CC2)cn1` [Example 16.5, 2-(((cyclopropylmethyl)((6-methoxypyridin-3-yl)methyl)amino)methyl)-7-methoxy-[1,2,4]triazolo[1,5-c]quinazolin-5-amine], 9.2 nM.
With `COc1cccc2c1nc(N)n1nc(CC(=O)NCc3ccc(C(F)(F)F)cc3)nc21` [Example 4.4, 2-(5-amino-7-methoxy-[1,2,4]triazolo[1,5-c]quinazolin-2-y1)-N-(4-(trifluoromethyl)benzyl)acetamide] the figure was 9.4 nM; with `COc1cccc2c1nc(N)n1nc(CNC(=O)CCc3ccccc3)nc21` [Example 2.2, N-((5-amino-7-methoxy-[1,2,4]triazolo[1,5-c]quinazolin-2-yl)methyl)-3-phenylpropanamide], 12.7 nM; with `COc1cccc(CN(Cc2nc3c4cccc(OC)c4nc(N)n3n2)CC2CC2)c1` [Example 16.15, 2-(((cyclopropylmethyl)(3-methoxybenzyl)amino)methyl)-7-methoxy-[1,2,4]triazolo[1,5-c]quinazolin-5-amine], 3.5 nM.
As for `COc1cccc2c1nc(N)n1nc(CN(Cc3cccnc3)CC3CC3)nc21` [Example 16.2, 2-(((cyclopropylmethyl)(pyridin-3-ylmethyl)amino)methyl)-7-methoxy-[1,2,4]triazolo[1,5-c]quinazolin-5-amine], the IC50 was determined as 5.3 nM.
With `COc1cccc2c1nc(N)n1nc(CNCc3ccccc3C(F)(F)F)nc21` [Example 8.4, 7-methoxy-2-(((2-(trifluoromethyl)benzyl)amino)methyl)-[1,2,4]triazolo[1,5-c]quinazolin-5-amine] the figure was 3.2 nM; with `COc1cccc2c1nc(N)n1nc(CCN[C@H](C)c3ccc(C(F)(F)F)cc3)nc21` [Example 22.4, (R)-7-methoxy-2-(2-((1-(4-(trifluoromethyl)phenyl)ethyl)amino)ethyl)-[1,2,4]triazolo[1,5-c]quinazolin-5-amine], 15.9 nM.
Next, `CCNCc1nc2c3cccc(OC)c3nc(N)n2n1` [Example 10.4, 2-((ethylamino)methyl)-7-methoxy-[1,2,4]triazolo[1,5-c]quinazolin-5-amine]: 46 nM; `COc1cccc2c1nc(N)n1nc(CN[C@@H](C)c3ccc(C(F)(F)F)cc3)nc21` [Example 7.2, (S)-7-methoxy-2-(((1-(4-(trifluoromethyl)phenyl)ethyl)amino)methyl)-[1,2,4]triazolo[1,5-c]quinazolin-5-amine]: 7.2 nM; `COc1cccc2c1nc(N)n1nc(CN(Cc3ccc(N4CCOCC4)nc3)CC3CC3)nc21` [Example 16.4, 2-(((cyclopropylmethyl)((6-morpholinopyridin-3-yl)methyl)amino)methyl)-7-methoxy-[1,2,4]triazolo[1,5-c]quinazolin-5-amine]: 10.9 nM.
The molecule `COc1cccc2c1nc(N)n1nc(CNC(=O)CCc3cccc(C(F)(F)F)c3)nc21` [Example 2.5] showed an IC50 of 25.8 nM.
